Source: US7919091B2, “Lipolysis stimulated receptor (LSR) specific antibodies” (Serono Genetics Institute S.A., priority 1997, dated 2011)

Assays:
LSR receptors = type: cell-based, rat; details: after leptin; 5 μM cycloheximide or 2.5 μM cytochalasin B, 30 min 37° C.
Protocol: Primary cultures of rat hepatocytes are incubated for 30 min at 37° C. in the presence or in the absence of 20 ng/ml of leptin, for 10 min at 37° C. in the presence of 0.8 mM oleate. The cells are washed with PBS buffer precooled to 4° C., and then incubated for 2 hours at 4° C. in the presence of increasing concentrations of ^125I-LDL. The cells are then washed, lysed and the quantity of bound ^125I-LDL is measured.
The initial conditions are identical to those described above; after incubation with leptin, the cells are incubated for 30 min at 37° C. with 5 μM cycloheximide, 5 μM colchicine or 2.5 μM cytochalasin B. The cells are then incubated for 10 min at 37° C. in the presence of 0.8 mM oleate. The cells are then washed with PBS buffer precooled to 4° C., and then incubated for 2 hours at 4° C. in the presence of 50 μg/ml of ^125I-LDL. 2 measurements are carried out, and the mean results are presented.

LSR = target: T1, LSR (Rattus norvegicus, UniProt Q9WU74); test: Effect of C1q on binding, internalization and degradation of LDLs by hepatocytes in primary culture; type: cell-based
T1 sequence (Q9WU74 36-593): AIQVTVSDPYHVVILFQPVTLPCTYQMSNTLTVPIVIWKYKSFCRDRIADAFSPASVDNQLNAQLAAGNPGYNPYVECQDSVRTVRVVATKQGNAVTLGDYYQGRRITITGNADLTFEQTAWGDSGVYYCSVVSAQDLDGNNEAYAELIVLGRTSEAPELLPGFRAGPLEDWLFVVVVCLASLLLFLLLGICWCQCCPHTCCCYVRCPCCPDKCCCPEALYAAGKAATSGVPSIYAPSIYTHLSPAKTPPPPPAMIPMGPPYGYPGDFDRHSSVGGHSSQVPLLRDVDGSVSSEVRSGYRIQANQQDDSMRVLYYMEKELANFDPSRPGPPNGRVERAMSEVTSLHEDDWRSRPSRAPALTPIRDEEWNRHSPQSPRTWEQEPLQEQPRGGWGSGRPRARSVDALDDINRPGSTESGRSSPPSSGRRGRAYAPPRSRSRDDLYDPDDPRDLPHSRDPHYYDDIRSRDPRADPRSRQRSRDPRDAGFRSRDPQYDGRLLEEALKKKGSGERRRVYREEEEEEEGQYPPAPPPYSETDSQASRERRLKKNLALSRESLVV
T1 sequence (Q9WU74 36-525 isoform Q9WU74-3 limits assumed): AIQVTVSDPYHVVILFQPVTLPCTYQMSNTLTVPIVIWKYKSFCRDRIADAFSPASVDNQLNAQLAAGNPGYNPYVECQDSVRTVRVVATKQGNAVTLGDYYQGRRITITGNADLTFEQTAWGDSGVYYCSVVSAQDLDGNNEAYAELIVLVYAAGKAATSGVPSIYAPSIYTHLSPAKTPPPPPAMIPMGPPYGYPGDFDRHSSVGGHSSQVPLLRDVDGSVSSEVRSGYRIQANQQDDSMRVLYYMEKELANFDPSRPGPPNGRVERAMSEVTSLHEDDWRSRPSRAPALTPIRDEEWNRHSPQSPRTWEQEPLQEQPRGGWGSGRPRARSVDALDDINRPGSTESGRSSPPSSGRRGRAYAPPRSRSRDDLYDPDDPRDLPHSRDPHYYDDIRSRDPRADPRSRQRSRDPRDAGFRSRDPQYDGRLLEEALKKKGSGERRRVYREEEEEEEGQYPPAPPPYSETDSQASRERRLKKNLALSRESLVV
Protocol: The LSR activity in the primary cultures of rat hepatocytes is measured by the binding, internalization and degradation of ^125I-LDL and ^125I-VLDL (LDL: low-density lipoprotein; VLDL: very low-density lipoprotein), as described in Bihain and Yen, 1992 and Mann et al., 1995.
It has been shown that gC1q-R could bind the globular head of […]. We sought to use this property of C1q to displace gC1q-R combined with LSR, and we measured the effect of increasing doses of C1q on the binding, internalization and degradation of the LDLs by hepatocytes in primary culture.

Molecule | induction by leptin of the LSR activity (increase in apparent number of receptors) (LSR receptors) | capture and degradation of LDLs (LSR; C1q, in the presence of oleate) | capture and degradation of LDLs (LSR; human C1q, in the absence of oleate)
C=C1[C@@H](C)[C@H]2[C@H](Cc3ccccc3)NC(=O)[C@]23OC(=O)/C=C/[C@H](O)CCC[C@@H](C)C/C=C/[C@H]3[C@@H]1O [cytochalasin B] | inhibited |  | 
C[C@@H]1C[C@@H]([C@H](O)CC2CC(=O)NC(=O)C2)C(=O)[C@@H](C)C1 [cycloheximide] | partially inhibited |  | 
C1q: human complement factor C1q, binds gC1q-R |  | less substantial, but nevertheless significant, increase | increase
